From patent publication US10308660B2, “Compounds and compositions for inhibiting the activity of SHP2” (Novartis AG, priority 2015, dated 2019)

molecular target: SHP2 (Homo sapiens (Human), UniProt Q06124); test: SHP2 allosteric inhibition assay (DiFMUP prompt fluorescence); type: biochemical; details: 0.5 nM SHP2 activated with 0.5 μM peptide IRS1_pY1172(dPEG8)pY1222; substrate DiFMUP; 25° C.

| Structure (SMILES) | IC50 |
| --- | --- |
| C[C@@H]1OCC2(CCN(c3nc(N)c(-c4ccc(OC(F)F)cc4)c(=O)n3C)CC2)[C@@H]1N [Example 145] | 34 nM |
| Cn1c(N2CCC3(CC2)C[C@@H](C(F)(F)F)C[C@H]3N)nc(N)c(-c2cccc(Cl)c2Cl)c1=O [Example 148] | 43 nM |
| Cn1c(N2CCC3(CC2)CC(F)(F)C[C@H]3N)nc(N)c(-c2ccccc2)c1=O [Example 150] | 44 nM |
| C[C@@H]1OCC2(CCN(c3nc(N)c(-c4cccc(F)c4)c(=O)n3C)CC2)[C@@H]1N [Example 151] | 44 nM |
| C[C@@H]1OCC2(CCN(c3nc(N)c(-c4ccccc4Cl)c(=O)n3C)CC2)[C@@H]1N [Example 152] | 45 nM |
| C[C@@H]1OCC2(CCN(c3nc(N)c(-c4ccc(F)cc4F)c(=O)n3C)CC2)[C@@H]1N [Example 156] | 48 nM |
| C[C@@H]1OCC2(CCN(c3nc(N)c(-c4ccc(F)c(Cl)c4)c(=O)n3C)CC2)[C@@H]1N [Example 158] | 53 nM |
| COc1ccc(-c2c(N)nc(N3CCC4(CC3)CO[C@@H](C)[C@H]4N)n(C)c2=O)cc1 [Example 159] | 56 nM |
| C[C@@H]1OCC2(CCN(c3nc(N)c(-c4ccc(C5CC5)cc4)c(=O)n3C)CC2)[C@@H]1N [Example 160] | 63 nM |
| C[C@@H]1CC2(CCN(c3nc(N)c(-c4ccccc4)c(=O)n3C)CC2)[C@H](N)C1(F)F [Example 165] | 78 nM |
| C[C@@H]1CC2(CCN(c3nc(N)c(-c4cccc(Cl)c4Cl)c(=O)n3C)CC2)[C@H](N)C1(F)F [Example 167] | 89 nM |
| COc1ccc(-c2c(N)nc(N3CCC4(CC3)CO[C@@H](C)[C@H]4N)n(C)c2=O)cc1C [Example 173] | 175 nM |
| C[C@@H]1OCC2(CCN(c3nc(N)c(-c4ccc(C(C)(C)C)cc4)c(=O)n3C)CC2)[C@@H]1N [Example 174] | 183 nM |
| C[C@@H]1OCC2(CCN(c3nc(N)c(-c4ccc(C#N)cc4)c(=O)n3C)CC2)[C@@H]1N [Example 175] | 256 nM |
| Cc1ccccc1-c1c(N)nc(N2CCC3(CC2)CO[C@@H](C)[C@H]3N)n(C)c1=O [Example 176] | 271 nM |
| C[C@@H]1OCC2(CCN(c3nc(N)c(-c4ccc(Cl)c(Cl)c4)c(=O)n3C)CC2)[C@@H]1N [Example 177] | 309 nM |
| C[C@@H]1OCC2(CCN(c3nc(N)c(-c4ccc(C5CCOCC5)cc4)c(=O)n3C)CC2)[C@@H]1N [Example 178] | 412 nM |
| C[C@@H]1OCC2(CCN(c3nc(N)c(-c4cc(Cl)cc(Cl)c4Cl)c(=O)n3C)CC2)[C@@H]1N [Example 180] | 515 nM |
| C[C@@H]1OCC2(CCN(c3nc(N)c(-c4ccccn4)c(=O)n3C)CC2)[C@@H]1N [Example 182] | 1060 nM |
| C[C@@H]1OCC2(CCN(c3nc(N)c(-c4cccc(C(F)(F)F)c4)c(=O)n3C)CC2)[C@@H]1N [Example 184] | 1690 nM |
| C[C@@H]1OCC2(CCN(c3nc(N)c(-c4ccc(N5CCOCC5)cc4)c(=O)n3C)CC2)[C@@H]1N [Example 185] | 2120 nM |
| C[C@@H]1OCC2(CCN(c3nc(N)c(-c4cc(Cl)ccc4Cl)c(=O)n3C)CC2)[C@@H]1N [Example 186] | 2230 nM |
| Cn1c(N2CCC3(CCC[C@H]3N)CC2)nc(N)c(-c2ccccc2)c1=O [Example 191] | 27 nM |
| Cc1nc(N2CCC3(CC2)CO[C@@H](C)[C@H]3N)n(C)c(=O)c1-c1ccccc1 [Example 197] | 369 nM |
| CC1(CN)CCN(c2ncc(-c3cccc(Cl)c3Cl)c(=O)[nH]2)CC1 [Example 200] | > 100000 nM |
| C[C@@H]1OCC2(CCN(c3ncc(-c4cccc(Cl)c4Cl)c(=O)[nH]3)CC2)[C@@H]1N [Example 201] | 3340 nM |

The remaining compounds from weak to strong by IC50, led by results:

| IC50 | Structure (SMILES) |
| --- | --- |
| 2950 nM | C[C@@H]1OCC2(CCN(c3nc(N)c(-c4ccnc(Cl)c4)c(=O)n3C)CC2)[C@@H]1N [Example 187] |
| 1590 nM | Cc1ncccc1-c1c(N)nc(N2CCC3(CC2)CO[C@@H](C)[C@H]3N)n(C)c1=O [Example 183] |
| 840 nM | COc1ccccc1-c1c(N)nc(N2CCC3(CC2)CO[C@@H](C)[C@H]3N)n(C)c1=O [Example 181] |
| 782 nM | N[C@@H]1CCCC12CCN(c1ncc(-c3cccc(Cl)c3Cl)c(=O)[nH]1)CC2 [Example 202] |
| 421 nM | C[C@@H]1OCC2(CCN(c3nc(N)c(-c4cc(Cl)cc(Cl)c4)c(=O)n3C)CC2)[C@@H]1N [Example 179] |
| 174 nM | C[C@H]1C[C@@H](N)C2(CCN(c3nc(N)c(-c4ccc(Cl)cc4)c(=O)n3C)CC2)C1 [Example 172] |
| 172 nM | C[C@@H]1OCC2(CCN(c3nc(N)c(-c4cncc(Cl)c4)c(=O)n3C)CC2)[C@@H]1N [Example 171] |
| 169 nM | COCCOc1ccc(-c2c(N)nc(N3CCC4(CC3)CO[C@@H](C)[C@H]4N)n(C)c2=O)cc1 [Example 170] |
| 119 nM | C[C@@H]1OCC2(CCN(c3nc(N)c(-c4ccc(OC(F)(F)F)cc4)c(=O)n3C)CC2)[C@@H]1N [Example 169] |
| 107 nM | C[C@@H]1OCC2(CCN(c3nc(N)c(-c4ccc(-c5ccccc5)cc4)c(=O)n3C)CC2)[C@@H]1N [Example 168] |
| 88 nM | C[C@@H]1OCC2(CCN(c3nc(N)c(-c4ccc(N(C)C)cc4)c(=O)n3C)CC2)[C@@H]1N [Example 166] |
| 75 nM | C[C@@H]1OCC2(CCN(c3nc(N)c(-c4cc(F)cc(F)c4)c(=O)n3C)CC2)[C@@H]1N [Example 164] |
| 73 nM | C[C@@H]1OCC2(CCN(c3nc(N)c(-c4ccc(C5CCCCC5)cc4)c(=O)n3C)CC2)[C@@H]1N [Example 163] |
| 69 nM | Cn1c(N2CCC3(CC2)COC[C@H]3N)nc(N)c(-c2cccc(Cl)c2Cl)c1=O [Example 190] |
| 66 nM | COc1ccc(-c2c(N)nc(N3CCC4(CC3)CO[C@@H](C)[C@H]4N)n(C)c2=O)cc1Cl [Example 162] |
| 63 nM | Cn1c(N2CCC3(CC2)C[C@@H](C(F)(F)F)C[C@H]3N)nc(N)c(-c2ccccc2)c1=O [Example 161] |
| 52 nM | COc1ccc(-c2c(N)nc(N3CCC4(CC3)CO[C@@H](C)[C@H]4N)n(C)c2=O)cc1F [Example 157] |
| 48 nM | Cn1c(N2CCC3(CC2)C[C@H](F)C[C@H]3N)nc(N)c(-c2cccc(Cl)c2Cl)c1=O [Example 155] |
| 46 nM | C[C@@H]1OCC2(CCN(c3nc(N)c(-c4ccccc4F)c(=O)n3C)CC2)[C@@H]1N [Example 153] |
| 46 nM | Cn1c(N2CCC3(CC2)C[C@H](F)C[C@H]3N)nc(N)c(-c2ccccc2)c1=O [Example 154] |
| 43 nM | C[C@@H]1OCC2(CCN(c3nc(N)c(-c4ccc(OCc5ccccc5)cc4)c(=O)n3C)CC2)[C@@H]1N [Example 149] |
| 41 nM | Cn1c(N2CCC3(CC2)COC[C@H]3N)nc(N)c(-c2ccccc2)c1=O [Example 189] |
| 40 nM | Cn1c(N2CCC(C)(CN)CC2)nc(N)c(-c2cccc(Cl)c2Cl)c1=O [Example 193] |
| 39 nM | C[C@@H]1OCC2(CCN(c3nc(N)c(-c4ccc(OCC5CC5)cc4)c(=O)n3C)CC2)[C@@H]1N [Example 147] |
| 38 nM | C[C@@H]1OCC2(CCN(c3nc(N)c(-c4ccc(F)cc4)c(=O)n3C)CC2)[C@@H]1N [Example 146] |
| 21 nM | Cn1c(N2CCC3(CCC[C@H]3N)CC2)nc(N)c(-c2cccc(Cl)c2Cl)c1=O [Example 192] |
| 15 nM | C[C@@H]1CC2(CCN(c3nc(N)c(-c4ccccc4)c(=O)n3C)CC2)[C@H](N)[C@H]1F [Example 188] |
